Assays:
RBL-2H3 [1] = experiment: Anti-type1 allergic activity in rat RBL2H3 cells using p-nitrophenyl-2-acdetamido-2-deoxy-beta-D-glucopyranoside as substrate assessed as inhibition of beta-hexosaminidase release at 100 uM incubated for 10 mins prior to substrate addition measured after 60 mins by spectrophotometry; type: functional
RBL-2H3 [2] = experiment: Anti-type1 allergic activity in rat RBL2H3 cells using p-nitrophenyl-2-acdetamido-2-deoxy-beta-D-glucopyranoside as substrate assessed as inhibition of beta-hexosaminidase release incubated for 10 mins prior to substrate addition measured after 60 mins by spectrophotometry; type: functional, cell-based
RBL-2H3 [3] = experiment: Anti-type1 allergic activity in rat RBL2H3 cells using p-nitrophenyl-2-acdetamido-2-deoxy-beta-D-glucopyranoside as substrate assessed as inhibition of beta-hexosaminidase release at 200 uM incubated for 10 mins prior to substrate addition measured after 60 mins by spectrophotometry; type: functional

| Structure (SMILES) | inhibition at 100 µM (RBL-2H3 [1]) | IC50 (RBL-2H3 [2]) | inhibition at 200 µM (RBL-2H3 [3]) |
| --- | --- | --- | --- |
| COC(=O)[C@H]1O[C@@H](O[C@H]2CC[C@]3(C)[C@H]4CC=C5[C@@H]6CC(C)(C)C[C@H](O)[C@]67C[C@@H](OC7=O)[C@@]5(C)[C@]4(C)CC[C@H]3C2(C)C)[C@H](O[C@@H]2O[C@H](CO)[C@@H](O)[C@H](O)[C@H]2O[C@@H]2O[C@@H](C)[C@H](O)[C@@H](O)[C@H]2O)[C@@H](O)[C@@H]1O | 40.3% | > 200 µM |  |
| C[C@@H]1O[C@@H](O[C@@H]2[C@@H](O)[C@H](O[C@H]3CC[C@]4(C)[C@H]5CC=C6[C@@H]7CC(C)(C)CC[C@]7(C(=O)O[C@@H]7O[C@H](CO)[C@@H](O)[C@H](O)[C@H]7O)CC[C@@]6(C)[C@]5(C)CC[C@H]4C3(C)C)O[C@H](C(=O)O)[C@H]2O)[C@H](O)[C@H](O)[C@H]1O |  | > 200 µM |  |
| C[C@@H]1O[C@@H](O[C@H]2[C@H](O[C@H]3[C@H](O[C@H]4CC[C@]5(C)[C@H]6CC=C7[C@@H]8C[C@@](C)(CO)[C@@H](O)C[C@]89C[C@@H](OC9=O)[C@@]7(C)[C@]6(C)CC[C@H]5C4(C)C)O[C@H](C(=O)O)[C@@H](O)[C@@H]3O)O[C@H](CO)[C@@H](O)[C@@H]2O)[C@H](O)[C@H](O)[C@H]1O [BRIDGESIDE A1] |  | > 200 µM |  |
| CC(=O)OC[C@]1(C)C[C@H]2C3=CC[C@@H]4[C@@]5(C)CC[C@H](O[C@@H]6O[C@H](C(=O)O)[C@@H](O)[C@H](O)[C@H]6O[C@@H]6O[C@H](CO)[C@@H](O)[C@H](O)[C@H]6O[C@@H]6OC[C@@H](O)[C@H](O)[C@H]6O)C(C)(C)[C@@H]5CC[C@@]4(C)[C@]3(C)[C@H]3C[C@]2(C[C@@H]1O)C(=O)O3 [BRIDGESIDE D1] |  | > 200 µM |  |
| CC(=O)OC[C@]1(C)C[C@H]2C3=CC[C@@H]4[C@@]5(C)CC[C@H](O[C@@H]6O[C@H](C(=O)O)[C@@H](O)[C@H](O)[C@H]6O[C@@H]6O[C@H](CO)[C@@H](O)[C@H](O)[C@H]6O[C@@H]6O[C@@H](C)[C@H](O)[C@@H](O)[C@H]6O)C(C)(C)[C@@H]5CC[C@@]4(C)[C@]3(C)[C@H]3C[C@]2(C[C@@H]1O)C(=O)O3 [BRIDGESIDE D2] |  | > 200 µM |  |
| C[C@@H]1O[C@@H](O[C@H]2[C@H](O[C@H]3[C@H](O[C@H]4CC[C@]5(C)[C@H]6CC=C7[C@@H]8CC(C)(C)C[C@H](O)[C@]89C[C@@H](OC9=O)[C@@]7(C)[C@]6(C)CC[C@H]5C4(C)C)O[C@H](C(=O)O)[C@@H](O)[C@@H]3O)O[C@H](CO)[C@@H](O)[C@@H]2O)[C@H](O)[C@H](O)[C@H]1O [DUMORTIERINOSIDE A] |  | > 200 µM | 32.5% |
| C=C(C)[C@@H]1CC[C@]2(C(=O)O[C@@H]3O[C@H](CO)[C@@H](O)[C@H](O)[C@H]3O)CC[C@]3(C)[C@H](CC[C@@H]4[C@@]5(C)CC[C@H](O[C@@H]6O[C@H](C(=O)O)[C@@H](O)[C@H](O[C@@H]7O[C@@H](C)[C@H](O)[C@@H](O)[C@H]7O)[C@H]6O[C@@H]6O[C@@H](C)[C@H](O)[C@@H](O)[C@H]6O)C(C)(C)[C@@H]5CC[C@]43C)[C@@H]12 [ERUCASAPONIN A] |  | > 200 µM |  |
| COC(=O)[C@H]1O[C@@H](O[C@H]2CC[C@]3(C)[C@H]4CC=C5[C@@H]6CC(C)(C)CC[C@]6(C=O)[C@@H](O)C[C@@]5(C)[C@]4(C)CC[C@H]3C2(C)C)[C@H](O[C@@H]2O[C@H](CO)[C@@H](O)[C@H](O)[C@H]2O)[C@@H](O[C@@H]2O[C@H](CO)[C@@H](O)[C@H](O)[C@H]2O)[C@@H]1O [GUMMOSOSIDE A METHYL ESTER] |  | 99.5 µM |  |
| CC1(C)CC[C@]2(C=O)[C@@H](O)C[C@]3(C)C(=CC[C@@H]4[C@@]5(C)CC[C@H](O[C@@H]6O[C@H](C(=O)O)[C@@H](O)[C@H](O[C@@H]7O[C@H](CO)[C@@H](O)[C@H](O)[C@H]7O)[C@H]6O[C@@H]6O[C@H](CO)[C@@H](O)[C@H](O)[C@H]6O)C(C)(C)[C@@H]5CC[C@]43C)[C@@H]2C1 [GUMMOSOSIDE A] |  | > 200 µM |  |
| C[C@H]1C[C@]23C(=O)O[C@@]14C(=CC[C@@H]1[C@@]5(C)CC[C@H](O[C@@H]6O[C@H](C(=O)O)[C@@H](O)[C@H](O[C@@H]7OC[C@@H](O)[C@H](O)[C@H]7O)[C@H]6O[C@@H]6O[C@H](CO)[C@@H](O)[C@H](O)[C@H]6O)C(C)(C)[C@@H]5CC[C@]14C)[C@@H]2CC(C)(C)C[C@@H]3O[C@@H]1O[C@H](C(=O)O)[C@@H](O)[C@H](O)[C@H]1O [PACHANOSIDE D1] |  | > 200 µM |  |
| CC(=O)O[C@H]1CC(C)(C)C[C@H]2C3=CC[C@@H]4[C@@]5(C)CC[C@H](O[C@@H]6O[C@H](C(=O)O)[C@@H](O)[C@H](O[C@@H]7OC[C@@H](O)[C@H](O)[C@H]7O)[C@H]6O[C@@H]6O[C@H](CO)[C@@H](O)[C@H](O)[C@H]6O)C(C)(C)[C@@H]5CC[C@@]4(C)[C@]34OC(=O)[C@]12C[C@@H]4C [PACHANOSIDE I1] |  | > 200 µM |  |
| C[C@@H]1O[C@@H](O[C@@H]2[C@@H](O)[C@@H](O)[C@H](O[C@H]3[C@H](O[C@H]4CC[C@]5(C)[C@H]6CC[C@@H]7[C@H]8[C@H](C(C)(C)O)[C@@H]9C[C@@]8(CC[C@@]7(C)[C@]6(C)CC[C@H]5C4(C)C)C(=O)O9)O[C@H](C(=O)O)[C@@H](O)[C@@H]3O)O[C@H]2C)[C@H](O)[C@H](O)[C@H]1O [STELLATOSIDE A] |  | > 200 µM |  |
| CC(C)(O)[C@H]1[C@@H]2[C@H]3CC[C@@H]4[C@@]5(C)CC[C@H](O[C@@H]6O[C@H](C(=O)O)[C@@H](O)[C@H](O)[C@H]6O[C@@H]6O[C@H](CO)[C@@H](O)[C@H](O)[C@H]6O[C@@H]6OC[C@@H](O)[C@H](O)[C@H]6O)C(C)(C)[C@@H]5CC[C@@]4(C)[C@]3(C)CC[C@@]23C[C@@H]1OC3=O [STELLATOSIDE B] |  | > 200 µM |  |
| C[C@@H]1O[C@@H](O[C@H]2[C@H](O[C@H]3CC[C@]4(C)[C@H]5CC[C@@H]6[C@H]7[C@H](C(C)(C)O)[C@@H]8C[C@@]7(CC[C@@]6(C)[C@]5(C)CC[C@H]4C3(C)C)C(=O)O8)O[C@H](C(=O)O)[C@@H](O)[C@@H]2O[C@@H]2O[C@@H](C)[C@H](O)[C@@H](O)[C@H]2O)[C@H](O)[C@H](O)[C@H]1O [STELLATOSIDE C] |  | > 200 µM |  |
| C=C(C)[C@H]1[C@@H]2[C@H]3CC[C@@H]4[C@@]5(C)CC[C@H](O[C@@H]6O[C@H](C(=O)O)[C@@H](O)[C@H](O[C@@H]7O[C@@H](C)[C@H](O)[C@@H](O)[C@H]7O)[C@H]6O[C@@H]6O[C@@H](C)[C@H](O)[C@@H](O)[C@H]6O)C(C)(C)[C@@H]5CC[C@@]4(C)[C@]3(C)CC[C@@]23C[C@@H]1OC3=O [THURBEROSIDE A] |  | 167 µM |  |

From ChEMBL document CHEMBL2046368, “New triterpenoid saponins from cacti and anti-type I allergy activity of saponins from cactus” (Bioorg Med Chem Lett, 2012)
